Laboratory results as given in patent US20180326022A1, “COMPOSITIONS AND METHODS FOR IMPROVING HEART FUNCTION AND TREATING HEART FAILURE” (The Trustees of the University of Pennsylvania, priority 2017, published 2018).

Experiments:
[1] = system: rat cardiomyocytes; assay: Calcium measurements (Fluo-3 transients); assay type: cell-based; details: rat ventricular myocytes; 2 hrs of 10 μM EpoY
Procedure: Myocytes were loaded with Fluo-3 by 20 min incubation with 1 μM Fluo-3-acetoxymethyl ester (Invitrogen) and 0.01% Pluronic F127 (a poloxamer made by BASF, Florham Park N.J., USA), and allowed an additional 10 min for de-esterification. Cells were scanned using a 488 nm argon ion laser in confocal line-scan mode at 1.92 ms/line. Cells were electrically paced at 1 Hz for 20 s to achieve steady state; the final 5 traces of the pacing protocol were pooled and analyzed for calcium transient properties. The measured fluorescence (F) throughout the transient was normalized to the resting fluorescence prior to stimulation (F0) to normalize for heterogeneity in dye loading.

[2] = system: detyrosinated tubulin; assay: Western blotting of cardiomyocyte lysates (TTL, α-, detyr-, tyr-tubulin); assay type: cell-based; details: rat cardiomyocytes; PTL treatment; shTTL; short term EpoY
Procedure: (§1) Viral constructs were permitted to express for 24-72 hours with Moi=100-200. Parthenolide (Fisher Scientific NC9013142) treatment was carried out at room temperature for 2 hours at 10 μM. All experiments were performed within 48 hours of isolation, except those involving shTTL, which were allowed 72 hours to improve knockdown efficiency.
For analysis of proteins expression levels quantitative Western blots were performed using infrared fluorescence imaging on an Odyssey Imager (LI-COR). Cell homogenates were prepared in ice-cold IGEPAL lysis buffer. After 1 freezing cycle lysates were spun at 18,000×g for 5 min. Aliquots of supernatants were mixed with 4× sample buffer (LI-COR, 928-40004) containing 10% BME, boiled for 6 min., and resolved on sodium dodecyl sulfate (SDS)-polyacrylamide gel electrophoresis Tris-glycine gels (Bio-Rad). Proteins were transferred to a membrane on Mini Trans-Blot Cell (Bio-Rad), blocked 1 h in Odyssey Blocking Buffer (TBS) (LI-COR, 927-50000), and probed with the corresponding primary antibody (see list below) for 2 h at room temperature. Membranes were then rinsed with TBST 4 times for 5 min, and incubated with secondary antibodies (below) for 1.5 h at room temperature. Membranes were rinsed again with TBST and then imaged on Odyssey Imager. Image analysis was performed using Image Studio Lite software (LI-COR). Fluorescent band intensity was always normalized to GAPDH loading control. Analysis of human tissue samples for levels of detyrosinated tubulin was performed blinded to the experimental groups.

[3] = system: primary adult rat cardiomyocytes; assay: Cell contractility (sarcomere shortening, 1 Hz pacing); assay type: cell-based; details: for contraction amplitudes and velocities: primary adult rat cardiomyocytes, vinblastine 20 μM 2 hr, nocodazole 1 μM 30 min, costunolide 10 μM 2 hr
Procedure: as §1
Experiments were performed in custom-fabricated cell chambers (Ionoptix) mounted on an LSM Zeiss 780 inverted confocal microscope using a 40× oil 1.4 NA objective and transmitted light camera (IonOptix MyoCam-S). For contractility assays, cells were maintained in NT solution and electrical field stimulation was provided at 1 Hz with a myopacer (IonOptix MYP100) through platinum electrodes lowered into the bath. Sarcomere length was measured optically by Fourier transform analysis (IonWizard, IonOptix). After 15 s of 1 Hz pacing to achieve steady state, five traces were recorded and analyzed.

[4] = system: human myocytes; assay: Cell contractility of human myocytes (0.5 Hz); assay type: cell-based
Procedure: (§2) Viable myocytes were concentrated by gravity (5-7 min) and supernatant was aspirated to remove dead cells. Myocytes were resuspended in NT solution containing 1 mM Ca^2+ and concentrated by gravity (5-7 min) again. Cardiomyocytes used acutely were maintained in NT solution for up to 6 hours. Myocytes were treated with 10 μM parthenolide (Fisher Scientific NC9013142 or Sigma P0667) or 10 μM colchicine (Sigma) at room temperature in NT solution for 2 hours. Experiments were performed within 6 hours of isolation, except for those involving viral transduction in cultured cells.
MatTek glass bottom dish was coated 5 μl of 0.5 mg/ml laminin and air dried for 10 min. Culture medium was F-10 (1×) Nutrient Mixture (Ham) [+] L-Glutamine (Life Technologies, 11550-043) supplemented with insulin-transferrin selenium-X (Gibco, 51500-056), 20 mM HEPES, 1 μg/μl primocin (Invivogen, ant-pm-1), 0.4 mM extra CaCl2, 5% FBS, 25 μM cytochalasin D (Cayman, 11330). Viable myocytes were concentrated and a proper amount of medium was added in culture so that neighboring cells were not in direct contact. Viral constructs were permitted to express for 48 hours with Moi=100-200. Adenoviral TTL-IRES-dsRed and EMTB-3x GFP were transduced in human myocytes as previously performed in rat myocytes. Myocytes were replenished with fresh warm medium without cytochalasin D before calcium and contractility measurements.
Experiments were performed as described in Example 1 with some modification. Contractility is measured in custom-fabricated cell chambers (Ionoptix) mounted on an LSM Zeiss 880 inverted confocal microscope using a 40× oil 1.4 NA objective and transmitted light camera (IonOptix MyoCam-S). Myoyctes were maintained in NT solution (for freshly isolated myocytes) or culture medium (without cytochalasin D, for cultured myocytes) at room temperature and electrical field stimulation was provided at 0.5 Hz with a myopacer (IonOptix MYP100) through platinum electrodes lowered into the bath. Sarcomere length was measured optically by Fourier transform analysis (IonWizard, IonOptix). After 10-30 s of 0.5 Hz pacing to achieve steady state, five traces were recorded and analyzed. If not specified, contractility data was obtained at room temperature.
To test whether the contractile improvement over MT destabilization remains under more physiological conditions, both 0.5 Hz and 1 Hz contractions at 37 C were recorded and analyzed in a small subset of isolated human myocytes (1 NF and 1 failing heart, FIG. 29C).

[5] = system: cardiac and skeletal muscle; details: 10 μM; refs (13), (8); cited from earlier work
[6] = system: human myocytes; assay: Nanoindentation stiffness measurements; assay type: cell-based; details: failing human myocytes; 10 μM, 2 hours
Procedure: as §2
MatTek glass bottom dish was coated 5 μl of 0.5 mg/ml laminin and air dried for 10 min. Culture medium was F-10 (1×) Nutrient Mixture (Ham) [+] L-Glutamine (Life Technologies, 11550-043) supplemented with insulin-transferrin selenium-X (Gibco, 51500-056), 20 mM HEPES, 1 μg/μl primocin (Invivogen, ant-pm-1), 0.4 mM extra CaCl2, 5% FBS, 25 μM cytochalasin D (Cayman, 11330). Viable myocytes were concentrated and a proper amount of medium was added in culture so that neighboring cells were not in direct contact. […]
Mechanical properties at the microscopic scale were measured using nanoindentation (Piuma, Optics11, The Netherlands). […] The Young's moduli were calculated automatically by the software, by fitting the force vs. indentation curve to the Hertz equation. […]

[7] = system: human myocytes; assay: Calcium measurements in human myocytes; assay type: cell-based
Procedure: as §2
Calcium measurements were carried out as described in Example 1 with the following modifications. Myocytes were loaded with 1 μM Fluo-3-acetoxymethyl ester (Invitrogen) and 15% Pluronic F127 (a poloxamer made by BASF, Florham Park, N.J., USA) for 15 minutes. Cells were scanned using a 488-nm argon ion laser in confocal line-scan mode at 0.909 ms/line. Cells were electrically paced at 0.5 Hz at room temperature for 30 s to achieve steady state; five steady-state transients of each myocyte were averaged, pooled in groups and analyzed for calcium transient properties. The measured fluorescence (F) throughout the transient was normalized to the resting fluorescence prior to stimulation (F0) to normalize for heterogeneity in dye loading.

**Q.** For CCOC(=O)C1O[C@@H]1C(=O)N[C@@H](Cc1ccc(O)cc1)C(=O)O (some centres unmarked) [EpoY], which “electrically evoked [Ca2+]i transients” value [1] is on record?
**A.** Its value is “not changed”.

**Q.** And the “alpha / total tubulin levels (western blot)” value [2]?
**A.** The value was “without changing”.

**Q.** And the “detyrosinated tubulin (western blot)” value [2]?
**A.** The value was “specifically reduces detyrosination”.

**Q.** And the “contractility (amplitude of contraction, velocity of contraction and relaxation)” value ([3]; rat ventricular myocytes, 2 hrs of 10 μM EpoY)?
**A.** The value was “enhanced”.

**Q.** Which “shortening amplitude and contractile velocities” value ([4]; NF human myocytes, 10 μM, 2 hours) does the source give for COc1cc2c(c(OC)c1OC)-c1ccc(OC)c(=O)cc1[C@@H](NC(C)=O)CC2 [colchicine, (S)—N-(5,6,7,9-tetrahydro-1,2,3,10-tetramethoxy-9 oxobenzol[a]heptalen-7-yl) acetamide] here?
**A.** The value was “modest (yet significant) increases”.

**Q.** What about the “restoration of lost function (contractile velocities vs NF benchmark)” value ([4]; failing human myocytes) of the same compound?
**A.** Its value is about 50%.

**Q.** And the “shortening amplitude and velocity, speed of relaxation” value ([4]; failing human myocytes, 10 μM, 2 hours)?
**A.** The value was “robustly improved”.

**Q.** What about the effect on microtubules [5] of the same compound?
**A.** Its effect on microtubules is “broadly depolymerizes MTs”.

**Q.** What about the “viscoelasticity (Emax and EΔ)” value [6] of the same compound?
**A.** Its value is “robustly reduced viscoelasticity”.

**Q.** And the “Ca2+ cycling” value ([7]; any group (NF and failing human myocytes))?
**A.** Its value is “no significant effect”.

**Q.** And the “impaired [Ca2+]i cycling” value ([7]; failing human myocytes)?
**A.** The value was “neither colch nor PTL treatment improved”.

**Q.** For C=C1C(=O)O[C@@H]2/C=C(\C)CC/C=C(\C)CC[C@@H]12 [costunolide, (3aS,6E,10E,11aR)-6,10-dimethyl-3-methylidene-3a,4,5,8,9,11a-hexahydrocyclodeca[b]furan-2-one], which “contraction amplitudes and velocities” value [3] is on record?
**A.** The value was “effective to increase”.

**Q.** Which “contraction amplitudes and velocities” value [3] does the source give for COC(=O)Nc1nc2ccc(C(=O)c3cccs3)cc2[nH]1 [nocodazole] here?
**A.** Its value is “effective to increase”.

**Q.** With CC[C@]1(O)C[C@@H]2CN(CCc3c([nH]c4ccccc34)[C@@](C(=O)OC)(c3cc4c(cc3OC)N(C)[C@H]3[C@@](O)(C(=O)OC)[C@H](OC(C)=O)[C@]5(CC)C=CCN6CC[C@]43[C@@H]65)C2)C1 [vinblastine] as the compound, how does the “contraction amplitudes and velocities” value [3] read?
**A.** The value was “effective to increase”.
